Test results: ChEMBL document CHEMBL1828571, “Discovery of novel selective norepinephrine inhibitors: 1-(2-morpholin-2-ylethyl)-3-aryl-1,3-dihydro-2,1,3-benzothiadiazole 2,2-dioxides (WYE-114152)” (J Med Chem, 2011)
Values belong to the compound of their own block, whether it stands above or below them. Activity calls are given as the source filed them.

Columns and labels:
[1] = target: T1, Sodium-dependent noradrenaline transporter (Homo sapiens, UniProt P23975); test: biochemical
[2] = target: T2, Sodium-dependent dopamine transporter (Homo sapiens, UniProt Q01959); test: Displacement of [3H]-WIN-35428 from human DAT expressed in CHO cells at 1 uM; format: cell-based
T2 sequence (Q01959 whole entry): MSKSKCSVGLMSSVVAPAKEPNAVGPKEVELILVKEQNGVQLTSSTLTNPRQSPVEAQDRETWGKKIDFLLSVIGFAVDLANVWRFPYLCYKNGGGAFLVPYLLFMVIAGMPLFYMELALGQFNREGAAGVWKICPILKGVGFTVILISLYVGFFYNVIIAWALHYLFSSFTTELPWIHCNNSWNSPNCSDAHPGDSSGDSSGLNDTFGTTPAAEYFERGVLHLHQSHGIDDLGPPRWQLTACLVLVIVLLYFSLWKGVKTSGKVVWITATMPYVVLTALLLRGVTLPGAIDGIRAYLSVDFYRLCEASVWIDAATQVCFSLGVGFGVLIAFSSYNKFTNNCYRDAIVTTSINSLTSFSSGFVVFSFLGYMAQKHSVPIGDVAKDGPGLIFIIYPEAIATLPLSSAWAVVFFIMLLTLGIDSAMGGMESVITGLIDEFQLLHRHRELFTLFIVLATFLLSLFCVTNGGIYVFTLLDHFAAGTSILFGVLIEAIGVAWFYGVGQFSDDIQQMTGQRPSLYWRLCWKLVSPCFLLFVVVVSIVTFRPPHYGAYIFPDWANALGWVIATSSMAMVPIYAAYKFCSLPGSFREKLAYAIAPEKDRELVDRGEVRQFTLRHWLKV

[3] = target: T3, Sodium-dependent serotonin transporter (Homo sapiens, UniProt P31645); format: cell-based, JAR
Target sequence in this assay (P31645 whole entry): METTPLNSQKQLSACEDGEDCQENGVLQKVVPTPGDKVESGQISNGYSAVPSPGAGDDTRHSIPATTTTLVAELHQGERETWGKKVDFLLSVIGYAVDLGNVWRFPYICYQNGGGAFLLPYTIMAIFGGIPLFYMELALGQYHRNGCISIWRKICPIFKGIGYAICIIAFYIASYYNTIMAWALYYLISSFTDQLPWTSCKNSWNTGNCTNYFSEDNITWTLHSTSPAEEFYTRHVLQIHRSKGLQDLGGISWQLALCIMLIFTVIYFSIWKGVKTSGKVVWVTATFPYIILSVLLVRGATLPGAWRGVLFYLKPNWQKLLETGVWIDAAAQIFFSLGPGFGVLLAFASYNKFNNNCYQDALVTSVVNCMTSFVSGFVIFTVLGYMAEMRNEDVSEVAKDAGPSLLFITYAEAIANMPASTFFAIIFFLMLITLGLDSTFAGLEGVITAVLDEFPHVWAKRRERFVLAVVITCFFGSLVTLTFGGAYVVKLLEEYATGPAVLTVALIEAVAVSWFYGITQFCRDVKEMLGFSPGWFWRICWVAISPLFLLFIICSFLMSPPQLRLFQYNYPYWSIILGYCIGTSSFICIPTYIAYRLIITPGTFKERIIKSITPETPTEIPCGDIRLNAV

[4] = target: T3, Sodium-dependent serotonin transporter; test: Inhibition of human SERT expressed in JAR cells assessed as serotonin uptake at 6 uM; format: cell-based
Target sequence in this assay (P31645 whole entry, looked up): as the sequence (P31645 whole entry) above

[5] = target: T2, Sodium-dependent dopamine transporter; test: biochemical
Rattus norvegicus [6] = test: Analgesic activity against spinal nerve ligation-induced mechanical hyperalgesia in po dosed Sprague-Dawley rat assessed as threshold to paw withdrawal; format: functional, organism-based
[7] = Half life in rat at 10 mg/kg, po; format: ADME, organism-based; parameters: dose 10 mg/kg, route oral; conditions: in vivo
Homo sapiens [8] = species: Homo sapiens; test: Selectivity ratio of IC50 for human NET over IC50 for human SERT
[9] = target: T1, Sodium-dependent noradrenaline transporter
Rattus norvegicus [10] = test: Increase of serotonin level in Sprague-Dawley rat medial prefrontal cortex at 30 mg/kg, po by microdialysis assay; format: functional, organism-based; parameters: dose 30 mg/kg
Rattus norvegicus [11] = test: Analgesic activity against carrageenan-induced hyperalgesia in Sprague-Dawley rat assessed as increase in paw withdrawal latency at 10 mg/kg, po after 4 hrs carrageenan challenge; format: functional, organism-based; parameters: dose 10 mg/kg
[12] = Half life in rat at 2 mg/kg, iv; format: ADME, organism-based; parameters: dose 2 mg/kg, route intravenous; conditions: in vivo
Rattus norvegicus [13] = test: Analgesic activity against FCA-induced mechanical hyperalgesia in Sprague-Dawley rat assessed as threshold to paw withdrawal at 3 mg/kg, po administered 24 hrs after FCA challenge measured after 3 hrs; format: functional, organism-based; parameters: dose 3 mg/kg
[14] = AUC (0 to infinity) in rat at 2 mg/kg, iv; format: ADME, organism-based; parameters: time infinity, dose 2 mg/kg, route intravenous; conditions: plasma
[15] = Tmax in rat at 10 mg/kg, po; format: ADME, organism-based; parameters: dose 10 mg/kg, route oral; conditions: in vivo
Rattus norvegicus [16] = test: Analgesic activity in Sprague-Dawley rat thermally-stimulated acute pain model assessed as increase in latency to nocicfensive response at 30 mg/kg, po after 1 to 5 hrs by hot plate assay; format: functional, organism-based; parameters: dose 30 mg/kg
[17] = Ratio of drug level in brain to plasma in rat; format: ADME; conditions: read-out: BPR
[18] = Cmax in rat at 10 mg/kg, po; format: ADME, organism-based; parameters: dose 10 mg/kg, route oral; conditions: in vivo
[19] = AUC (0 to infinity) in rat at 10 mg/kg, po; format: ADME, organism-based; parameters: time infinity, dose 10 mg/kg, route oral; conditions: plasma
Rattus norvegicus [20] = test: Increase of norepinephrine level in Sprague-Dawley rat medial prefrontal cortex at 30 mg/kg, po by microdialysis assay relative to baseline; format: functional
Rattus norvegicus [21] = test: Analgesic activity in Sprague-Dawley rat thermally-stimulated acute pain model assessed as increase in latency to nocicfensive response at 10 mg/kg, po after 1 to 5 hrs by hot plate assay; format: functional, organism-based; parameters: dose 10 mg/kg
Rattus norvegicus [22] = test: Analgesic activity against carrageenan-induced hyperalgesia in Sprague-Dawley rat assessed as increase in paw withdrawal latency at 30 mg/kg, po after 4 hrs carrageenan challenge; format: functional, organism-based; parameters: dose 30 mg/kg
Rattus norvegicus [23] = test: Analgesic activity against FCA-induced mechanical hyperalgesia in Sprague-Dawley rat assessed as threshold to paw withdrawal at 3 mg/kg, po administered 24 hrs after FCA challenge measured after 5 hrs; format: functional, organism-based; parameters: dose 3 mg/kg
[24] = Plasma clearance in rat at 2 mg/kg, iv; format: ADME, organism-based; parameters: dose 2 mg/kg, route intravenous
Homo sapiens [25] = species: Homo sapiens; test: Selectivity ratio of IC50 for human NET over IC50 for human DAT
[26] = Oral bioavailability in rat at 10 mg/kg; format: ADME, organism-based; conditions: in vivo
[27] = Volume of distribution at steady state in rat at 2 mg/kg, iv; format: ADME, organism-based; parameters: dose 2 mg/kg, route intravenous; conditions: in vivo, read-out: Vdss

T1 sequence (P23975 whole entry): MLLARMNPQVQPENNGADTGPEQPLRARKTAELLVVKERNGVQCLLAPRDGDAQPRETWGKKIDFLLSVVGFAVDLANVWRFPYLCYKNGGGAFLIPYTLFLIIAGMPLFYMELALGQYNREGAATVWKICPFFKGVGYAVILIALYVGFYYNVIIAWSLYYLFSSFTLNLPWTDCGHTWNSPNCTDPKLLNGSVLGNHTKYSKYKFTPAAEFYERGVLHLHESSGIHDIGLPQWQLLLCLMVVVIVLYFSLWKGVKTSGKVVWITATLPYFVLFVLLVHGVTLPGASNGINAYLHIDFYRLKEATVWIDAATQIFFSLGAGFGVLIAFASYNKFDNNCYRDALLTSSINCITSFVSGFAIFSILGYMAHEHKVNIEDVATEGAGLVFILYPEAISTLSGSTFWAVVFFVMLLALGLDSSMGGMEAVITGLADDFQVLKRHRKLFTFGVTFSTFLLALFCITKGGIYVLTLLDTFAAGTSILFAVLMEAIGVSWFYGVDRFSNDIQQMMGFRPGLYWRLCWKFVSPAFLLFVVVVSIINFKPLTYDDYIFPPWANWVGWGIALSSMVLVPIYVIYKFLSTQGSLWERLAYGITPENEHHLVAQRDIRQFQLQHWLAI

SMILES: CNC[C@@H](CCN1c2ccccc2N(c2ccccc2)S1(=O)=O)OC
IC50 [1]: 13 nM
inhibition [2]: 39%
IC50 [3]: 5100 nM

SMILES: O=S1(=O)N(CC[C@@H]2CNCCO2)c2ccccc2N1c1ccccc1
IC50 [1]: 5 nM
IC50 [3]: 6770 nM
inhibition [4]: 55%

SMILES: CNC[C@H](CCN1c2ccccc2N(c2ccccc2)S1(=O)=O)OC
IC50 [1]: 103 nM
IC50 [5]: 1040 nM
inhibition [4]: 52%

SMILES: O=S1(=O)N(CC[C@H]2CNCCO2)c2ccccc2N1c1ccccc1
IC50 [1]: 9 nM
IC50 [3]: 1030 nM
inhibition [4]: 68%

SMILES: CN1CCOC(CN2c3ccccc3N(c3ccccc3)S2(=O)=O)C1 (racemic)
IC50 [1]: 2300 nM
inhibition [2]: 77%

SMILES: O=S1(=O)N(CCC2CCCNC2)c2ccccc2N1c1ccccc1 (racemic)
IC50 [9]: 54 nM
IC50 [1]: 30 nM
inhibition [2]: 95%
IC50 [3]: 2980 nM

SMILES: O=S1(=O)N(CC2CNCCO2)c2ccccc2N1c1ccccc1 (racemic)
IC50 [9]: 147 nM
IC50 [1]: 74 nM
inhibition [2]: 32%
inhibition [4]: 0%

SMILES: CNC[C@H](O)CCN1c2ccccc2N(c2ccccc2F)S1(=O)=O
inhibition [4]: 28%

Now from value to compound, other results behind:

half-life [7]: 1.8 h
Ratio IC50 (Homo sapiens [8]): > 430
IC50 [9]: 15 nM
half-life [12]: 1.8 h
IC50 [1]: 5 nM
IC50 [3]: 6410 nM
AUC(0-inf) [14]: 958 ng·h/mL
Tmax [15]: 1 h
Kp [17]: 3.9
Cmax [18]: 373 ng/mL
AUC(0-inf) [19]: 1320 ng·h/mL
clearance [24]: 38 mL/min/kg
Ratio IC50 (Homo sapiens [25]): > 548
bioavailability [26]: 28%
Vd [27]: 5 L/kg
SMILES: O=S1(=O)N(CC[C@@H]2CNCCO2)c2ccccc2N1c1ccccc1F
Activity (Rattus norvegicus [6]): Dose-dependent effect
Activity (Rattus norvegicus [10]): inactive
Activity (Rattus norvegicus [11]): Active
Activity (Rattus norvegicus [13]): Active
Activity (Rattus norvegicus [16]): Active
Activity (Rattus norvegicus [20]): 390%
Activity (Rattus norvegicus [21]): Active
Activity (Rattus norvegicus [22]): Active
Activity (Rattus norvegicus [23]): Active

IC50 [1]: 143 nM
IC50 [5]: 2040 nM
IC50 [3]: 4130 nM
SMILES: O=S1(=O)N(CC[C@@H]2CNCCO2)c2ccccc2N1c1ccc(F)cc1F

IC50 [9]: 14 nM
IC50 [1]: 8 nM
inhibition [2]: 43%
IC50 [3]: 8350 nM
SMILES: O=S1(=O)N(CCC2CNCCO2)c2cc(F)ccc2N1c1ccccc1F (configuration not stated)

IC50 [1]: 283 nM
IC50 [5]: 211 nM
SMILES: O=S1(=O)N(CC[C@@H]2CNCCO2)c2ccccc2N1c1ccc(F)cc1

IC50 [1]: 80 nM
IC50 [3]: 1400 nM
SMILES: O=S1(=O)N(CC[C@@H]2CNCCO2)c2ccccc2N1c1c(F)cc(F)cc1F

IC50 [1]: 7 nM
IC50 [5]: 964 nM
IC50 [3]: 1780 nM
SMILES: O=S1(=O)N(CCC2CNCCO2)c2ccccc2N1c1ccccc1 (racemic)

IC50 [1]: 99 nM
IC50 [3]: 749 nM
SMILES: COc1cccc(N2c3ccccc3N(CC[C@@H]3CNCCO3)S2(=O)=O)c1

IC50 [9]: 22 nM
IC50 [1]: 5 nM
inhibition [2]: 50%
IC50 [3]: 992 nM
SMILES: O=S1(=O)N(CCC2CNCCO2)c2c(F)cccc2N1c1ccccc1F (configuration not stated)

IC50 [9]: 7 nM
IC50 [1]: 13 nM
inhibition [2]: 20%
IC50 [3]: 5790 nM
SMILES: O=S1(=O)N(CCC2CNCCO2)c2cccc(F)c2N1c1ccccc1F (configuration not stated)

IC50 [9]: 120 nM
IC50 [1]: 209 nM
inhibition [2]: 23%
IC50 [3]: 806 nM
SMILES: O=S1(=O)N(CCC2CNCCO2)c2ccc(F)cc2N1c1ccccc1F (configuration not stated)

IC50 [5]: 341 nM
SMILES: O=S1(=O)N(C[C@H]2CNCCO2)c2ccccc2N1c1ccccc1

IC50 [5]: 792 nM
SMILES: O=S1(=O)N(C[C@@H]2CNCCO2)c2ccccc2N1c1ccccc1
